In publication PMC9611259, “Antimicrobial Peptides Active in In Vitro Models of Endodontic Bacterial Infections Modulate Inflammation in Human Cardiac Fibroblasts” (Pharmaceutics, 2022):
Converted amounts (≈) assume the structure as drawn. Like-named read-outs stand apart in the source and are kept apart here. Where a SMILES comes first, the peptide text is derived from it. Bridges are numbered along the chain shown (N, C = ends). Roman numbers before positions name the chains, in order. [ ]: non-standard residue; d: D form. βAla = NCCC(=O)O

Key:
E. faecalis = details: standard-of-care antibiotics against E. faecalis; cited from earlier work
Method: As reported in Table 2, biofilm inhibition was tested against two strains of E. faecalis, ATCC 51,299 and PE endodontic isolate, and two strains of E. coli, TG1 reference strain and LC711 clinical isolate (Table 2). The BPC of M33D was equal to the MIC against E. faecalis reference strain ATCC 51,299 and clinical isolate PE. The BPC of M33i/l was double and equal to the MIC in E. faecalis reference strain and clinical isolate, respectively. The MBIC of both peptides against E. faecalis reference strain and PE was 6 μM, i.e., from two to three times the MIC. The results are particularly promisi ...

E. coli LC711 [1] = type: cell-based, Escherichia coli
Method: (§1) The bacteria reported in Table 1 were used for conventional susceptibility testing experiments. M33D and M33i/l MICs were determined in triplicate on reference and clinical strains using a microdilution assay, performed according to the guidelines of the Clinical and Laboratory Standards Institute. Briefly, strains were grown on Mueller–Hinton (MH) agar plates (Becton Dickinson, Franklin Lakes, NJ, USA) and a single colony for each strain was picked using a sterile cotton swab, streaked in sterile cation-supplemented MH, and measured with a densitometer (Densichek, bioMèrieux, Marcy l’Etoile, France) up to 0.15 optical density. Wells of a microtiter plate containing 50 μL serial-doubling dilutions of the peptides were inoculated with an equal volume of bacterial suspension. The final bacterial inoculum was 5 × 10^4 CFU/well in a volume of 100 μL. […] Assays were performed in triplicate, and the median MIC values were recorded.

E. coli TG1 [2] = type: cell-based, Escherichia coli; details: reference strain; CLSI microdilution, 5 × 10^4 CFU/well, 35° 18–20 h, median of triplicate
Method: as §1

E. faecalis ATCC 51299 [3] = type: cell-based, Enterococcus faecalis
Method: as §1

E. faecalis Fi74B1 = type: cell-based, Enterococcus faecalis
Method: as §1

E. faecalis Fi74B4 = type: cell-based, Enterococcus faecalis
Method: as §1

E. faecalis PE [4] = type: cell-based, Enterococcus faecalis
Method: as §1

C. albicans ATCC 90028 = type: cell-based
C. glabrata ATCC 90030 = type: cell-based
C. krusei ATCC 6268 = type: cell-based
E. faecalis ATCC 51299 [5] = type: cell-based, Enterococcus faecalis; details: 24 h preformed biofilm challenged with peptide 14 h at 37 °C, crystal violet OD595, triplicate wells
Method: (§2) For MBIC, the bacterial suspension (200 μL) of E. faecalis PE, E. faecalis 51299, E. coli TG1, or E. coli LC711, obtained as above, was added to wells in triplicate, in a 96-well U-bottom plate and incubated at 37 °C for 24h. The supernatant was removed, and 200 μL M33D and M33i/l diluted in TSB was added to the wells in twofold serial dilutions of each peptide.
(§3) Untreated bacteria were used as positive control. After 14 h of static incubation at 37 °C, wells were washed thrice with PBS and fixed with PFA 4% in PBS (200 μL) for 30 min at room temperature. Wells were then washed three times, and crystal violet (1% in water) was added and incubated for 30 min in the dark. Wells were again washed, and the color dissolved with ethanol/acetone 80:20. Color was read at 595 nm. The MBIC is the lowest concentration of an antibiotic that results in an OD595 nm difference of ≤10% of the mean of two control well readings.
(§4) Biofilm inhibition activity was evaluated on the basis of two parameters: the biofilm prevention concentration (BPC) and the minimal biofilm inhibition concentration (MBIC). The BPC is the lowest concentration of peptide that results in 10% lower biofilm formation compared to untreated controls. The biofilm was measured after removing planktonic cells by washing the wells, previously incubated for 24 h with the bacteria and the peptide. MBIC is the lowest concentration of peptide that results in a 10% reduction in preformed biofilm compared to untreated controls. A 24 h biofilm was challenged with serial dilutions of the peptides for 14 h. Then after removal of planktonic cells, the residual biofilm was measured. Crystal violet absorbance at […] was used to measure biofilm in the case of both parameters.

E. faecalis PE [6] = type: cell-based, Enterococcus faecalis; details: 24 h preformed biofilm challenged with peptide 14 h at 37 °C, crystal violet OD595, triplicate wells
Method: as §2, §3, §4

E. coli LC711 [7] = type: cell-based, Escherichia coli; details: 24 h preformed biofilm challenged with peptide 14 h at 37 °C, crystal violet OD595, triplicate wells
Method: as §2, §3, §4

E. coli TG1 [8] = type: cell-based, Escherichia coli; details: 24 h preformed biofilm challenged with peptide 14 h at 37 °C, crystal violet OD595, triplicate wells
Method: as §2, §3, §4

C. striatum ATCC = type: cell-based
Method: as §1

[9] = test system: Enterococcus faecalis and faecium; type: cell-based
Method: as §1

S. pneumoniae ATCC 49619 = type: cell-based
Method: as §1

S. pyogenes CCUG2557 = type: cell-based
Method: as §1

[10] = test system: Staphylococcus aureus and epidermidis; type: cell-based
Method: as §1

Candida species = type: cell-based
in vitro = in vitro ADME; details: human, serum
Method: A pool of sera from healthy volunteers (n = 5) was diluted to 50% with RPMI 1640 medium. A 5 μg/mL solution of the peptides in 50% serum was incubated at 37 °C for different time intervals (2, 4, 24, 48, and 72 h). At the established time, trichloroacetic acid was added at a 7.5% concentration, and the sample was centrifuged at 12,000–13,000× g for 15 min. Part of the supernatant was used for the MALDI-TOF analysis (2 μL) and part (250 μL) for the HPLC analysis, after being diluted with 1% TFA (750 μL). Time-zero HPLC and MS-spectroscopy spectra were obtained immediately after mixing the peptide with 50% serum. The presence of the intact peptide was determined in HPLC by spotting and integrating the peptide peak at the correct retention time. The identity of the peptide peak was further also confirmed by MALDI mass spectrometry.

[11] = Eukaryotic cell viability assay (MTT); type: cell-based, murine; details: mouse
Method: RAW 264.7 cells, 5 × 10^3 per well, were seeded in 96-well plates and incubated for 24 h at 37 °C in a 5% CO2 atmosphere. A 100 μL volume of peptides at different concentrations in fresh medium was then added to the wells and kept for 24 h. Then 20 μL MTT (5 mg/mL) was added to each well, and the plate was incubated at 37 °C for 3 h. Finally, 120 μL HCl 4 mM in isopropanol was added to each well to dissolve the formazan crystals. Optical density was measured with a microplate reader (Bio-Rad, Hercules, CA, USA) at 570 nm. Cell viability was calculated by comparing the values of treated with those of untreated cells. Curves and EC50 were calculated using GraphPad Prism 5.03 software.

P. aeruginosa ATCC 27853 = type: cell-based, Pseudomonas aeruginosa
Method: as §1

P. aeruginosa AV 65 = type: cell-based, Pseudomonas aeruginosa
Method: as §1

K. pneumoniae 7086042 = type: cell-based, Klebsiella pneumoniae
Method: as §1

K. pneumoniae ATCC 13833 = type: cell-based, Klebsiella pneumoniae
Method: as §1

E. coli ATCC 25922 = type: cell-based, Escherichia coli
Method: as §1

E. coli W03BG0025 = type: cell-based, Escherichia coli
Method: as §1

S. aureus 3851 = type: cell-based, Staphylococcus aureus
Method: as §1

S. aureus USA 300 = type: cell-based, Staphylococcus aureus
Method: as §1

S. epidermidis 6154 = type: cell-based
Method: as §1

[12] = test system: S. epidermidis ATCC 14990; type: cell-based
Method: as §1

CC1(C)S[C@@H]2[C@H](NC(=O)[C@H](N)c3ccccc3)C(=O)N2[C@H]1C(=O)O [ampicillin]
MBIC as multiple of the MIC (E. faecalis): 2048 times the MIC

CC[C@@H](C)[C@@H](NC(=O)[C@@H](CCCCN)NC(=O)[C@H](N)CCCCN)C(=O)N[C@H](CCCNC(=N)N)C(=O)N[C@@H](C(=O)N[C@H](CCCNC(=N)N)C(=O)N[C@H](CC(C)C)C(=O)N[C@H](CO)C(=O)N[C@H](C)C(=O)NCCCC[C@H](NC(=O)[C@@H](C)NC(=O)[C@@H](CO)NC(=O)[C@@H](CC(C)C)NC(=O)[C@@H](CCCNC(=N)N)NC(=O)[C@H](NC(=O)[C@@H](CCCNC(=N)N)NC(=O)[C@H](NC(=O)[C@@H](CCCCN)NC(=O)[C@H](N)CCCCN)[C@H](C)CC)C(C)C)C(=O)NCCCC[C@H](NC(=O)[C@H](CCCCNC(=O)[C@@H](C)NC(=O)[C@@H](CO)NC(=O)[C@@H](CC(C)C)NC(=O)[C@@H](CCCNC(=N)N)NC(=O)[C@H](NC(=O)[C@@H](CCCNC(=N)N)NC(=O)[C@H](NC(=O)[C@@H](CCCCN)NC(=O)[C@H](N)CCCCN)[C@H](C)CC)C(C)C)NC(=O)[C@@H](C)NC(=O)[C@@H](CO)NC(=O)[C@@H](CC(C)C)NC(=O)[C@@H](CCCNC(=N)N)NC(=O)[C@H](NC(=O)[C@@H](CCCNC(=N)N)NC(=O)[C@H](NC(=O)[C@@H](CCCCN)NC(=O)[C@H](N)CCCCN)[C@H](C)CC)C(C)C)C(=O)NCCC(=O)O)C(C)C [M33D]
MIC (E. coli LC711 [1]; LC711): 1.5 µM (≈ 7.02 µg/mL)
MIC (E. coli TG1 [2]): 1.5 µM (≈ 7.02 µg/mL)
MIC (E. faecalis ATCC 51299 [3]): 3 (16) μM
MIC (E. faecalis Fi74B1): 0.8 (4) μM
MIC (E. faecalis Fi74B4): 1.5 (8) μM
MIC (E. faecalis PE [4]): 1.5 (8) μM
MIC (C. albicans ATCC 90028): 5 (24) μM
MIC (C. glabrata ATCC 90030): 12 (64) μM
MIC (C. krusei ATCC 6268): 6 (32) μM
MBIC (E. faecalis ATCC 51299 [5]): 6 µM
MBIC (E. faecalis PE [6]): 6 µM
MBIC (E. coli LC711 [7]): 3 µM
MBIC (E. coli TG1 [8]): 3 µM
MIC (C. striatum ATCC): 1.5 µM (≈ 7.02 µg/mL)
MIC range against Enterococcus faecalis and faecium [9]: 0.8 to 3 µM
MIC (S. pneumoniae ATCC 49619): 6 (32) μM
MIC (S. pyogenes CCUG2557): 6 (32) μM
MIC range against Staphylococcus aureus and epidermidis [10]: 0.4 to 1.5 µM
MIC range against Candida species (Candida species): 5 to 12 µM
remaining at 72 h, 5 μg/mL (in vitro): 31%
EC50 at 24 h ([11]; 24 h incubation at 37 °C, MTT, n = 3, read-out: EC50 cytotoxicity): 30 µM

CC(=O)NC[C@H]1CN(c2ccc(N3CCOCC3)c(F)c2)C(=O)O1 [linezolid]
MBIC as multiple of the MIC (E. faecalis): 1024 times the MIC

CC(C)C[C@@H](NC(=O)[C@@H](CCCCN)NC(=O)[C@H](N)CCCCN)C(=O)N[C@H](CCCNC(=N)N)C(=O)N[C@@H](C(=O)N[C@H](CCCNC(=N)N)C(=O)N[C@H](CC(C)C)C(=O)N[C@H](CO)C(=O)N[C@H](C)C(=O)NCCCC[C@H](NC(=O)[C@@H](C)NC(=O)[C@@H](CO)NC(=O)[C@@H](CC(C)C)NC(=O)[C@@H](CCCNC(=N)N)NC(=O)[C@H](NC(=O)[C@@H](CCCNC(=N)N)NC(=O)[C@@H](CC(C)C)NC(=O)[C@@H](CCCCN)NC(=O)[C@H](N)CCCCN)C(C)C)C(=O)NCCCC[C@H](NC(=O)[C@H](CCCCNC(=O)[C@@H](C)NC(=O)[C@@H](CO)NC(=O)[C@@H](CC(C)C)NC(=O)[C@@H](CCCNC(=N)N)NC(=O)[C@H](NC(=O)[C@@H](CCCNC(=N)N)NC(=O)[C@@H](CC(C)C)NC(=O)[C@@H](CCCCN)NC(=O)[C@H](N)CCCCN)C(C)C)NC(=O)[C@@H](C)NC(=O)[C@@H](CO)NC(=O)[C@@H](CC(C)C)NC(=O)[C@@H](CCCNC(=N)N)NC(=O)[C@H](NC(=O)[C@@H](CCCNC(=N)N)NC(=O)[C@@H](CC(C)C)NC(=O)[C@@H](CCCCN)NC(=O)[C@H](N)CCCCN)C(C)C)C(=O)NCCC(=O)O)C(C)C [M33i/l] (I: H-[dK][dK][dL][dR][dV][dR][dL][dS][dA]KK[βAla]-OH / II: H-[dK][dK][dL][dR][dV][dR][dL][dS][dA]K / III: H-[dK][dK][dL][dR][dV][dR][dL][dS][dA] / IV: H-[dK][dK][dL][dR][dV][dR][dL][dS][dA]; amide I:10-IV:C, I:11-II:C, II:10-III:C)
MIC (P. aeruginosa ATCC 27853): 0.8 (4) μM
MIC (P. aeruginosa AV 65): 1.5 (8) μM
MIC (K. pneumoniae 7086042): 6 (32) μM
MIC (K. pneumoniae ATCC 13833): 3 (16) μM
MIC (E. coli ATCC 25922): 3 (16) μM
MIC (E. coli LC711 [1]; ColR (colistin-resistant) clinical isolate, CLSI microdilution, 5 × 10^4 CFU/well, 35° 18–20 h, median of triplicate): 0.3 (1.6) μM
MIC (E. coli TG1 [2]): 1.5 µM (≈ 7.02 µg/mL)
MIC (E. coli W03BG0025): 3 (16) μM
MIC (S. aureus 3851): 0.8 (4) μM
MIC (S. aureus USA 300): 1.5 (8) μM
MIC (E. faecalis ATCC 51299 [3]): 1.5 (8) μM
MIC (E. faecalis PE [4]): 1.5 (8) μM
MBIC (E. faecalis ATCC 51299 [5]): 6 µM
MBIC (E. faecalis PE [6]): 6 µM
MBIC (E. coli LC711 [7]): 3 µM
MBIC (E. coli TG1 [8]): 3 µM
MIC (S. epidermidis 6154): 0.8 (4) μM
MIC [12]: 0.8 (4) μM
remaining at 72 h, 5 μg/mL (in vitro): 25%
EC50 at 24 h [11]: 18 µM
